In patent US10030016B2 (Sunesis Pharmaceuticals, Inc., priority 2009, dated 2018):
Where two headings read alike, the source gives them in different places.

Tests used:
PDK1 = PDK1 (Homo sapiens (Human), UniProt O15530); experiment: PDK1 kinase assay (coupled PDK1/AKT/FAM-crosstide assay, IMAP fluorescence polarization); assay type: biochemical; details: inhibition of phospo-PDK1 in vitro
In short: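 Inhibition is derived by 4-parameter fitting of ΔmP from an IMAP fluorescence polarization read of FAM-crosstide (100 nM) phosphorylation. The cascade ran 30 min at 25 °C with 40 μM ATP, using insect-cell GST-PDK1 51-359 (0.75 nM) driving 10 nM unphosphorylated AKT2 140-467-PIFtide fusion.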

[1] = test system: phospho-akt (Thr308) in PC-3 cells; experiment: Inhibition of phospho-akt (Thr308) in PC-3 cells, MSD phospho-akt 308 ELISA kit; assay type: cell-based; details: Homo sapiens, inhibition of P308 Akt in PC-3 cells, 2 hours, no serum, MSD, read-out: EC50
In short: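 PC-3 cells (15,000/well, overnight in 10% FBS medium) treated 2 h with three-fold diluted compounds in serum-free medium; DMSO high and 5 μM wortmannin low controls. Lysates captured on BSA-blocked MSD plates overnight at 4 °C, then 1 h antibody detection at RT; phospho-Akt Thr308 read by MSD electrochemiluminescence.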

Sequence of PDK1 (O15530 51-359): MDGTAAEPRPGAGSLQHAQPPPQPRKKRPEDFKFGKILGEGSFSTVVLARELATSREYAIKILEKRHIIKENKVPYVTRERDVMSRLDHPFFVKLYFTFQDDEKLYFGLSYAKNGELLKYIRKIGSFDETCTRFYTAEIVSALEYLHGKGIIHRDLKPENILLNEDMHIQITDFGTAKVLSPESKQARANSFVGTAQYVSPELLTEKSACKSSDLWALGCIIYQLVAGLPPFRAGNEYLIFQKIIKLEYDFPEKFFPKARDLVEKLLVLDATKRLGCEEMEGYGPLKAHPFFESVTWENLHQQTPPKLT

Row | SMILES | IC50 (PDK1) [µM] | EC50 ([1]; PC-3, 2 h) [µM] | EC50 [1] [µM]
1 | O=C(NCc1ccc(F)c(F)c1)c1cccnc1NCc1ccc(-c2c[nH]c3ncccc23)s1 [Example 1.17, 2-(((5-(1H-pyrrolo[2,3-b]pyridin-3-yl)thiophen-2-yl)methyl)amino)-N-(3,4-difluorobenzyl)nicotinamide] | 0.1 to 1 | > 10 | 
2 | O=C(NCc1ccc(C(F)(F)F)cc1)c1cccnc1NCc1ccc(-c2c[nH]c3ncccc23)s1 [Example 1.18] | 1 to 5 |  | > 10
3 | O=C(NCC1CCCC1)c1cccnc1NCc1ccc(-c2c[nH]c3ncccc23)s1 [Example 1.19, 2-(((5-(1H-pyrrolo[2,3-b]pyridin-3-yl)thiophen-2-yl)methyl)amino)-N-4-(cyclopentylmethyl) nicotinamide] | 1 to 5 |  | 1 to 10
4 | O=C(NCc1ccc(F)c(F)c1)c1ccccc1NCc1cccc(-c2c[nH]c3ncccc23)c1 [Example 1.20, 2-(3-(1H-pyrrolo[2,3-b]pyridin-3-yl)benzylamino)-N-(3,4-difluorobenzyl)benzamide] | < 0.1 |  | 1 to 10
5 | C[C@H](NC(=O)c1cccnc1NCc1ccc(-c2cc3c(N)ncnc3cn2)s1)c1ccc(F)cc1 [Example 2.13.1, (S)-2-(((5-(4-aminopyrido[3,4-d]pyrimidin-6-yl)thiophen-2-yl)methyl)amino)-N-(1-(4-fluoro-phenyl)ethyl)nicotinamide] | 0.1 to 1 | 1 to 10 | 

The remaining lines, values ahead:

Row | IC50 (PDK1) [µM] | EC50 ([1]; PC-3, 2 h) [µM] | EC50 [1] [µM] | SMILES
6 | 1 to 5 |  | > 10 | C[C@H](NC(=O)c1cccnc1NCc1ccc(-c2ccc3ncnn3c2)s1)c1ccc(F)cc1 [Example 2.4, N-[(1S)-1-(4-fluorophenyl)ethyl]-2-({[5-([1,2,4]triazolo[1,5-a]pyridin-6-yl)thiophen-2-yl]methyl}amino)pyridine-3-carboxamide]
7 | 1 to 5 | > 10 |  | C[C@H](NC(=O)c1cccnc1NCc1ccc(-c2ccn3ncnc3c2)s1)c1ccc(F)cc1 [Example 2.5, N-[(1S)-1-(4-fluorophenyl)ethyl]-2-({[5-([1,2,4]triazolo[1,5-a]pyridin-7-yl)thiophen-2-yl)methyl}amino)pyridine-3-carboxamide]
8 | 1 to 5 |  | > 10 | C[C@H](NC(=O)c1cccnc1NCc1ccc(-c2ccc3nccn3c2)s1)c1ccc(F)cc1 [Example 2.7, (S)-N-(1-(4-fluorophenyl)ethyl)-2-(((5-(imidazo[1,2-a]pyridin-6-yl)thiophen-2-yl)methyl)amino)nicotinamide]
9 | 1 to 5 |  | > 10 | C[C@H](NC(=O)c1cccnc1NCc1ccc(-c2cn3ccnc3cn2)s1)c1ccc(F)cc1 [Example 2.8, (S)-N-(1-(4-fluorophenyl)ethyl)-2-(((5-(imidazo[1,2-a]pyrazin-6-yl)thiophen-2-yl)methyl)amino)nicotinamide]
10 | 1 to 5 | 1 to 10 |  | C[C@H](NC(=O)c1cccnc1NCc1ccc(-c2c[nH]c(=O)c3ccccc23)s1)c1ccc(F)cc1 [Example 2.9, (S)-N-(1-(4-fluorophenyl)ethyl)-2-(((5-(1-oxo-1,2-dihydroiso-quinolin-4-yl)thiophen-2-yl)methyl)amino)nicotinamide]
11 | > 5 |  | > 10 | C[C@H](NC(=O)c1cccnc1NCc1ccc(-c2cn(C)c(=O)c3ccccc23)s1)c1ccc(F)cc1 [Example 2.10, (S)-N-(1-(4-fluorophenyl)ethyl)-2-(((5-(2-methyl-1-oxo-1,2-di-hydroisoquinolin-4-yl)thiophen-2-yl)methyl)amino)nicotinamide]
12 | > 5 |  | 1 to 10 | COc1cc2ncnc(-c3ccc(CNc4ncccc4C(=O)N[C@@H](C)c4ccc(F)cc4)s3)c2cc1OC [Example 2.12, (S)-2-(((5-(6,7-dimethoxyquinazolin-4-yl)thiophen-2-yl)methyl)amino)-N-(1-(4-fluorophenyl)ethyl) nicotinamide]
13 | 0.1 to 1 |  | 1 to 10 | C[C@H](NC(=O)c1cccnc1NCc1ccc(-c2ccc3ncnc(NCCN)c3c2)s1)c1ccc(F)cc1 [Example 2.15, (S)-2-(((5-(4-(2-aminoethylamino)quinazolin-6-yl)thiophen-2-yl)methyl)amino)-N-(1-(4-fluorophenyl)ethyl)nicotinamide]
